The target of one experiment is Lactoperoxidase (Bos taurus, UniProt P80025). Description: Inhibition of Bos taurus (bovine) milk lactoperoxidase-catalyzed iodination of L-tyrosine substrate by reverse phase HPLC analysis.
The target of experiment [1] is Lactoperoxidase (Bos taurus) (UniProt P80025). Kind of experiment: Non-competitive inhibition of Bos taurus (bovine) milk lactoperoxidase using varying concentration of L-tyrosine and fixed concentration of H2O2 as substrate by Lineweaver-burk plot analysis.
Experiment [2] has the same target. Kind of experiment: Non-competitive inhibition of Bos taurus (bovine) milk lactoperoxidase using fixed concentration of L-tyrosine and varying concentration of H2O2 as substrate by Lineweaver-burk plot analysis.
Experiment [3] shares this target. Description: Irreversible inhibition of Bos taurus (bovine) milk lactoperoxidase using L-tyrosine as substrate at 30 uM in presence of 0.08 to 0.8 mM H2O2 by reverse phase HPLC analysis.

SMILES strings stand for the structures. Active and inactive are the calls of the source. The calls are words filed in the database; no cut-off is given here. Some results are limits rather than exact numbers.

In turn, `O=c1oc(-c2ccc(Cl)cc2)cc2ccccc12` had an IC50 on Lactoperoxidase of 105 µM. As to `S=c1oc(-c2ccc(Cl)cc2)cc2ccccc12`, the IC50 against Lactoperoxidase came to 26.4 µM. Consider `Cc1ccc(-c2cc3ccccc3c(=O)o2)cc1`, for which the IC50 against Lactoperoxidase was 93.8 µM. Regarding `S=c1oc(-c2cccc3ccccc23)cc2ccccc12`, the inhibition entry in experiment [1], in experiment [2] and in experiment [3] was “Active” in each case. Besides, inhibition against Lactoperoxidase was half-maximal at 5.1 µM (IC50). At Lactoperoxidase, `CCCCc1cc2ccccc2c(=S)o1` yielded a concentration for half-maximal inhibition (IC50) of 17.4 µM. With `COc1ccc(-c2cc3ccccc3c(=S)o2)cc1`, the inhibition result in experiment [3] is “Active”. Besides, the IC50 at Lactoperoxidase was found to be 8.4 µM.

With `S=c1oc(-c2ccccc2)cc2ccccc12`, the IC50 against Lactoperoxidase was 13.9 µM. On the same count and under the same terms, the same measure for `O=c1oc(-c2ccccc2)cc2ccccc12`: over 200 µM; for `O=c1oc(-c2ccco2)cc2ccccc12`: over 200 µM; for `COc1ccc(-c2cc3ccccc3c(=O)o2)cc1`: over 200 µM.

Compound `S=c1oc(C2CCCCC2)cc2ccccc12` had an IC50 at Lactoperoxidase of 5.5 µM. On the same count and under the same terms, next, `CC(C)(C)c1cc2ccccc2c(=S)o1`: 21.9 µM. Take `Cc1ccc(-c2cc3ccccc3c(=S)o2)cc1`: the inhibition entry in experiment [1] and in experiment [2] was “Active” each time. This compound also gave a half-maximal inhibitory concentration (IC50) on Lactoperoxidase of 6.2 µM. Consider `S=c1oc(-c2ccoc2)cc2ccccc12`, for which the IC50 on Lactoperoxidase came to 26.5 µM. On to `Cn1cc[nH]c1=S` [METHIMAZOLE], for which the half-maximal inhibitory concentration (IC50) on Lactoperoxidase worked out at 8.4 µM. Still for that read-out and setting: the same measure for `S=c1oc(-c2cccs2)cc2ccccc12`: 14.3 µM; for `S=c1oc(-c2ccco2)cc2ccccc12`: 17.8 µM; for `O=c1oc(-c2cccc3ccccc23)cc2ccccc12`: 34.6 µM.
